Test results taken from patent US20090156518A1, “STABLE PHARMACEUTICAL COMPOSITION COMPRISING BETA-LACTAM ANTIBIOTIC AND BUFFER” (priority 2006, published 2009).

Assay: amounts of β-lactam antibiotic, β-lactamase inhibitor (C18 reverse-phase LC, UV-VIS) and aminoglycoside (HPLC-ELSD) in solution over time
Assay type: physicochemical
[1] = Example 10: mezlocillin sodium 2 g, sulbactam sodium 0.5 g, etimicin sulfate 200 mg, citrate pH 6.5, 200 mL water, room temperature, Time 0 h
[2] = Example 10: mezlocillin sodium 2 g, sulbactam sodium 0.5 g, etimicin sulfate 200 mg, citrate pH 6.5, 200 mL water, room temperature, Time 1 h
[3] = Example 10: mezlocillin sodium 2 g, sulbactam sodium 0.5 g, etimicin sulfate 200 mg, citrate pH 6.5, 200 mL water, room temperature, Time 2 h
[4] = Example 11: freeze-dried mezlocillin sodium, sulbactam sodium, citrate pH 6.5, 7 days 0° C., in 100 mL 5% fructose + etimicin sulfate 200 mg, Time 0 h
[5] = Example 11: freeze-dried mezlocillin sodium, sulbactam sodium, citrate pH 6.5, 7 days 0° C., in 100 mL 5% fructose + etimicin sulfate 200 mg, Time 1 h
[6] = Example 11: freeze-dried mezlocillin sodium, sulbactam sodium, citrate pH 6.5, 7 days 0° C., in 100 mL 5% fructose + etimicin sulfate 200 mg, Time 2 h
[7] = Example 11: freeze-dried mezlocillin sodium, sulbactam sodium, citrate pH 6.5, 7 days 0° C., in 100 mL 5% fructose + etimicin sulfate 200 mg, Time 4 h
[8] = Example 11: freeze-dried mezlocillin sodium, sulbactam sodium, citrate pH 6.5, 7 days 0° C., in 100 mL 5% fructose + etimicin sulfate 200 mg, Time 6 h
[9] = Example 11: freeze-dried mezlocillin sodium, sulbactam sodium, citrate pH 6.5, 7 days 0° C., in 100 mL 5% fructose + etimicin sulfate 200 mg, Time 8 h

Description: The amounts of β-lactam antibiotics and β-lactamase inhibitor were determined using C18 reverse-phase LC and UV-VIS detector (Tianjin Hemay BioTech Co., Ltd., analysis method No. HM-K-03). The content of aminoglycoside antibiotics was measured using reverse-phase HPLC and evaporation-light-scattering detector (ELSD detector) (Tianjin Hemay BioTech Co., Ltd., analysis method No. HM-K-08). The amount of antibiotic component at each time point was expressed as a percentage with respect to the amount at the initial time (herein defined as 100%). The relative amount of each antibiotic component in the composition at each time point was expressed as peak area ratio with respect to the corresponding peak area of an external standard.

SMILES	amount of component as percentage with respect to the amount at the initial time [1]	amount of component as percentage with respect to the amount at the initial time [2]	amount of component as percentage with respect to the amount at the initial time [3]	amount of component as percentage with respect to the amount at the initial time [4]	amount of component as percentage with respect to the amount at the initial time [5]	amount of component as percentage with respect to the amount at the initial time [6]	amount of component as percentage with respect to the amount at the initial time [7]	amount of component as percentage with respect to the amount at the initial time [8]	amount of component as percentage with respect to the amount at the initial time [9]	also measured
CCN[C@@H]1C[C@H](N)[C@@H](O[C@H]2O[C@H](CN)CC[C@H]2N)[C@H](O)[C@H]1O[C@H]1OC[C@](C)(O)[C@H](NC)[C@H]1O.O=S(=O)(O)O [Etimicin sulfate, etimicin sulfate]	100.1%	100.6%	99.79%	100.1%	100.4%	99.31%	99.56%	99.61%	99.25%	amount of component as percentage with respect to the amount at the initial time (Example 6: freeze-dried cefoperazone sodium 4 g, sulbactam sodium 1 g, citrate pH 6.75, + etimicin sulfate 200 mg, 7 days 0° C., dissolved in 100 mL water, Time 0 h): 108.9%; amount of component as percentage with respect to the amount at the initial time (Example 6: freeze-dried cefoperazone sodium 4 g, sulbactam sodium 1 g, citrate pH 6.75, + etimicin sulfate 200 mg, 7 days 0° C., dissolved in 100 mL water, Time 1 h): 100.2%; amount of component as percentage with respect to the amount at the initial time (Example 6: freeze-dried cefoperazone sodium 4 g, sulbactam sodium 1 g, citrate pH 6.75, + etimicin sulfate 200 mg, 7 days 0° C., dissolved in 100 mL water, Time 2 h): 100.5%; amount of component as percentage with respect to the amount at the initial time (Example 6: freeze-dried cefoperazone sodium 4 g, sulbactam sodium 1 g, citrate pH 6.75, + etimicin sulfate 200 mg, 7 days 0° C., dissolved in 100 mL water, Time 4 h): 100.4%; amount of component as percentage with respect to the amount at the initial time (Example 6: freeze-dried cefoperazone sodium 4 g, sulbactam sodium 1 g, citrate pH 6.75, + etimicin sulfate 200 mg, 7 days 0° C., dissolved in 100 mL water, Time 6 h): 100.4%; amount of component as percentage with respect to the amount at the initial time (Example 6: freeze-dried cefoperazone sodium 4 g, sulbactam sodium 1 g, citrate pH 6.75, + etimicin sulfate 200 mg, 7 days 0° C., dissolved in 100 mL water, Time 8 h): 97.50%
CC1(C)S[C@@H]2[C@H](NC(=O)[C@H](NC(=O)N3CCN(S(C)(=O)=O)C3=O)c3ccccc3)C(=O)N2[C@H]1C(=O)O [Mezlocillin sodium]	96.48%	95.90%	71.70%	116.6%	94.83%	91.86%	91.96%	91.52%	98.56%	amount of component as percentage with respect to the amount at the initial time (Example 10: mezlocillin sodium 2 g, sulbactam sodium 0.5 g, etimicin sulfate 200 mg, citrate pH 6.5, 200 mL water, room temperature, Time 4 h): 91.78%; amount of component as percentage with respect to the amount at the initial time (Example 10: mezlocillin sodium 2 g, sulbactam sodium 0.5 g, etimicin sulfate 200 mg, citrate pH 6.5, 200 mL water, room temperature, Time 6 h): 93.08%; amount of component as percentage with respect to the amount at the initial time (Example 10: mezlocillin sodium 2 g, sulbactam sodium 0.5 g, etimicin sulfate 200 mg, citrate pH 6.5, 200 mL water, room temperature, Time 8 h): 97.69%; amount of component as percentage with respect to the amount at the initial time (Example 13: freeze-dried mezlocillin sodium, citrate pH 6, 7 days 0° C., in 100 mL 5% fructose + etimicin sulfate 200 mg, Time 0 h): 95.05%; amount of component as percentage with respect to the amount at the initial time (Example 13: freeze-dried mezlocillin sodium, citrate pH 6, 7 days 0° C., in 100 mL 5% fructose + etimicin sulfate 200 mg, Time 1 h): 96.63%; amount of component as percentage with respect to the amount at the initial time (Example 13: freeze-dried mezlocillin sodium, citrate pH 6, 7 days 0° C., in 100 mL 5% fructose + etimicin sulfate 200 mg, Time 2 h): 89.33%; amount of component as percentage with respect to the amount at the initial time (Example 13: freeze-dried mezlocillin sodium, citrate pH 6, 7 days 0° C., in 100 mL 5% fructose + etimicin sulfate 200 mg, Time 4 h): 98.72%; amount of component as percentage with respect to the amount at the initial time (Example 13: freeze-dried mezlocillin sodium, citrate pH 6, 7 days 0° C., in 100 mL 5% fructose + etimicin sulfate 200 mg, Time 6 h): 92.73%; amount of component as percentage with respect to the amount at the initial time (Example 13: freeze-dried mezlocillin sodium, citrate pH 6, 7 days 0° C., in 100 mL 5% fructose + etimicin sulfate 200 mg, Time 8 h): 92.51%
